Measurements as given in patent US20210353564A1, “TREATMENTS FOR ZIKA VIRUS INFECTION” (Saint Louis University, priority 2018, published 2021).
Counter-ions that a name gives are not always drawn.

Columns and labels:
[1] = system: ZIKV strain PRVABC59; assay: focus reduction test of ZIKV on Vero cells; conditions: focus reduction test (FIG. 1B)
Source text: Average+/−StdDev from three independent experiments done in duplicate.

[2] = after two years, only tamoxifen; cited from earlier work
[3] = system: HCV; conditions: cited from earlier work
[4] = system: ERa-mediated gene transcription; conditions: cited from earlier work
[5] = target: T1, ERa (Homo sapiens, UniProt P03372); conditions: cited from earlier work
T1 sequence (P03372 1-595): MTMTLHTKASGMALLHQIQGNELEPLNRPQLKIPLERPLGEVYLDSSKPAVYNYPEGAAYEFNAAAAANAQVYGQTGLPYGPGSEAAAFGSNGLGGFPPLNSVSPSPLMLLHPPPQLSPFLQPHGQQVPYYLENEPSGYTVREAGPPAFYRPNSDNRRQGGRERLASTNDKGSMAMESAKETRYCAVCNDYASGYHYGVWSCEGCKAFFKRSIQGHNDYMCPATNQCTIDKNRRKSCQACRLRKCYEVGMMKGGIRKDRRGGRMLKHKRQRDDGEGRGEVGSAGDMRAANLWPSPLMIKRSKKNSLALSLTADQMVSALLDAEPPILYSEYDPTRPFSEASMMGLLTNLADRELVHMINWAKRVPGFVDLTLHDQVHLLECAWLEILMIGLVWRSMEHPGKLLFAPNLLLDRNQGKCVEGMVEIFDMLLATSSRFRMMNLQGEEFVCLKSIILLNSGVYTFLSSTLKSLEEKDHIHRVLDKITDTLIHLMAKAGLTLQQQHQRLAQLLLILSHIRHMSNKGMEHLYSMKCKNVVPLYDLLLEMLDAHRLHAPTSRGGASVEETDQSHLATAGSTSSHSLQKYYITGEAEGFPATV

[6] = average 4-year follow-up; difference not statistically significant; cited from earlier work
[7] = system: Zika virus; assay: Focus Forming Assay, Vero cells drugged at T-1, T0, T1, T8, T12 relative to addition of virus; format: cell-based; conditions: for change of EC50 with time of compound addition: addition T-1 to T12 relative to virus; for effect on Zika virus replication (focus count): remaining virus after 39 hours
Method: FIGS. 3-14. Focus Forming Assay. Data represent Vero cells drugged with SERM compounds an hour before addition of virus (T-1), upon addition of virus (T0), one hour after addition of virus (T1), eight hours after addition of virus (T8), and twelve hours after addition of virus. Each compound was screened as triplicate measurements and performed in duplicate. The data is shown as focus count (normalized to the control wells) which represents the amount of remaining virus after 39 hours as a function of log concentration.

[8] = system: Ca2+-mediated cytotoxicity and apoptosis; conditions: cited from earlier work
[9] = system: calmodulin-activated PDE; conditions: cited from earlier work

Molecule | change of EC50 with time of compound addition [7] | effect on Zika virus replication (focus count) [7] | also measured
CC/C(=C(\c1ccccc1)c1ccc(OCCN(C)C)cc1)c1ccccc1 [TAM, Tamoxifen] |  |  | antiviral activity against ZIKV grown in Vero cells [1]: antiviral activity; women with a recurrence [2]: 7.5%; effect on HCV genome replication [3]: able to inhibit HCV genome replication; toxicity in the HCV replication study [3]: without any apparent toxicity
Methylpiperidinopyrazole [MPP] |  |  | selectivity for blocking ERa-mediated gene transcription relative to that of ERβ [4]: 1000 fold; selectivity for ERa over ERβ [5]: 200 fold
O=C(c1ccc(OCCN2CCCCC2)cc1)c1c(-c2ccc(O)cc2)sc2cc(O)ccc12 [raloxifene] |  |  | fewer blood clots than in women taking tamoxifen [6]: 29%; fewer uterine cancers than in women taking tamoxifen [6]: 36%
CCCCCCCCCCCCCC(=O)O[C@@H]1[C@@H](C)[C@@]2(O)[C@@H](C=C(CO)C[C@]3(O)C(=O)C(C)=C[C@@H]23)[C@@H]2C(C)(C)[C@]12OC(C)=O [PMA, phorbol-12-myristate-13-acetate] | EC50 increases from T8 to T12 | diminishes viral replication | 
VAITVLVK [CALP-1, cell-permeable calmodulin (CaM) peptide agonist] |  | increase viral growth during some of the assays | IC50 [8]: 52 µM
COc1cc2c(cc1OC)CN(CCc1ccc(NC(=O)c3cc(OC)c(OC)cc3NC(=O)c3cnc4ccccc4c3)cc1)CC2 [Tariquidar] | EC50 does not change substantially from T-1 to T12 | prevents viral replication | 
O=c1c(-c2ccc(O)cc2)coc2cc(O)ccc12 [Daidzein] |  | no effect | 
O=c1c(-c2ccc(O)cc2)coc2cc(O)cc(O)c12 [Genistein] |  | no effect | 
C[C@H]1CCCC(=O)CCCCCc2cc(O)cc(O)c2C(=O)O1 [Zearalanone] |  | no effect | 
C[C@]12CC[C@@H]3c4ccc(O)cc4C[C@@H](CCCCCCCCC[S+]([O-])CCCC(F)(F)C(F)(F)F)[C@H]3[C@@H]1CC[C@@H]2O (stereo partly drawn) [ICI182780] |  |  | effect on HCV genome replication [3]: able to inhibit HCV genome replication; toxicity in the HCV replication study [3]: without any apparent toxicity
CC/C(=C(\c1ccccc1)c1ccc(OCCN(C)C)cc1)c1ccccc1 [Tamoxifen citrate] | EC50 increases from T1 to T8 | prevents viral replication | 
Cl.NCCCCCCCCCCNS(=O)(=O)c1cccc2c(Cl)cccc12 [A-7] | EC50 increases from T1 to T8 | prevents viral replication | IC50 [9]: 3 µM; effect on Zika virus replication (focus count) ([7]; listed as A-7 Hydrochloride): impedes viral replication
Oc1ccc([C@H]2COc3cc(O)ccc3C2)cc1 [(S)-Equol, (S)-equol] | EC50 increases from T8 to T12 | diminishes viral replication | 
